# Test results taken from patent publication US7199082B1, “Methods for extending the freshness of cut flowers, ornamental trees, and plant cuttings” (University of North Texas, priority 1999, dated 2007).
# Read-outs that look alike come from different tables or passages of the source.
# Assays:
# cabbage PLD α = cabbage PLD α (Brassica oleracea var. capitata, UniProt P55939); assay: NAE inhibition of highly purified cabbage PLD α; conditions: for remaining activity at 1 µM: read-out: cabbage PLD activity, % of the control; for inhibition of cabbage PLD α: submicromolar to low micromolar amounts (FIG. 6)
# castor bean PLD α = castor bean PLD α (Ricinus communis, UniProt Q41142); assay: biochemical; assay type: biochemical
# white carnation = assay: Stem wilt of cut carnations (angle of declination at nodes below flower head); assay type: in vivo; conditions: for Angle of bend of stem, 2nd Node Below Flower / Angle of bend of stem, 3rd Node Below Flower: after 14 days, single stems separated by /
# Procedure: Because NAE inhibited PLD cc activity in vitro, and because PLD activity has been associated with cellular damage in senescing plant tissues, the effect of NAE-containing solutions was tested as senescence-delaying agents for cut flowers. Several parameters were examined with carnations, stem wilt, and flower cross-sectional width and appearance. For stem wilt, the angle of declination at the second and third nodes from the flower head was measured from photographs taken at 14 days after treatments (Table 3). Flowers were either dipped in agar, or not, then dipped into water or NAE 12:0 at 0.1 mM. The larger the angle reported, the greater the wilt or bend of the stem.
# carnations = assay: Appearance of carnation blooms (brown petals, corolla size); assay type: in vivo; conditions: after 14 days
# Procedure: In related studies, the appearance of visible signs of senescence (brown petals) and size of the carnation corolla were evaluated at different concentrations of NAE12:0 (Table 4).
# long-stem pink roses = assay: Appearance of long-stem pink roses; assay type: in vivo, rose; parameters: key to Roses appearance (mark): *: Best Appearance; conditions: after 7 days; for Size of Flower Bloom (Cross-Sectional Width at Tip): 2 ml of test solution at day zero, in water
# red Gerber daisy = assay: Days before wilting and petal collapse, random blind comparison
# S. chromofuscus PLD = assay: NAE effect on S. chromofuscus PLD (production of radiolabeled phosphatidic acid); conditions: submicromolar to low micromolar amounts (FIG. 6)
# PLD = conditions: Ryu et al., 1997; cited from earlier work
# [1] = Solubility of NAEs and NAE formulations in aqueous solutions; assay type: physicochemical; conditions: longer acyl chain NAEs in the formulations
# [2] = agar-dipped stem in 0.1 mM NAE 12:0 (n = 2)
# Chain of cabbage PLD α (P55939 37-812): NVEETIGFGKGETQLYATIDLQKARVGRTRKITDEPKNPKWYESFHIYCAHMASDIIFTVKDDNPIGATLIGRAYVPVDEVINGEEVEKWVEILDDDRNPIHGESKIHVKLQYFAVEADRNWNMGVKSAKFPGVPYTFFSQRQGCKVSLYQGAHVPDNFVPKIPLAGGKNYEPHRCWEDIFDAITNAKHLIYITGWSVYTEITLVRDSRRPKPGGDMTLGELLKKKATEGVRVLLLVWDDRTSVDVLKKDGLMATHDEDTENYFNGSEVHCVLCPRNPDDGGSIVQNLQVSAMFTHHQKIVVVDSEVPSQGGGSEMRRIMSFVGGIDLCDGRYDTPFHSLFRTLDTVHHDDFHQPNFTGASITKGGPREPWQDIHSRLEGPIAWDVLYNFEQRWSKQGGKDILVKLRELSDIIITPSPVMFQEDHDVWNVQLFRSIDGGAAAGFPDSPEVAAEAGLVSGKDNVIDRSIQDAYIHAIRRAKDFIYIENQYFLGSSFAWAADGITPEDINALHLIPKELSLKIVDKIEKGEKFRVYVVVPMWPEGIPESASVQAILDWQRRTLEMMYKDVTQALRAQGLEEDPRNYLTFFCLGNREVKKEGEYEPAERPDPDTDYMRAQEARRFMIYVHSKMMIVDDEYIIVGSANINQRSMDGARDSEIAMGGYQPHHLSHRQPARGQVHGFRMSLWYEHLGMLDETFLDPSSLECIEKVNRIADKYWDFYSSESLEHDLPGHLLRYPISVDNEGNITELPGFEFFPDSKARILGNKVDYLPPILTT
# Chain of castor bean PLD α (Q41142 31-808 limits assumed): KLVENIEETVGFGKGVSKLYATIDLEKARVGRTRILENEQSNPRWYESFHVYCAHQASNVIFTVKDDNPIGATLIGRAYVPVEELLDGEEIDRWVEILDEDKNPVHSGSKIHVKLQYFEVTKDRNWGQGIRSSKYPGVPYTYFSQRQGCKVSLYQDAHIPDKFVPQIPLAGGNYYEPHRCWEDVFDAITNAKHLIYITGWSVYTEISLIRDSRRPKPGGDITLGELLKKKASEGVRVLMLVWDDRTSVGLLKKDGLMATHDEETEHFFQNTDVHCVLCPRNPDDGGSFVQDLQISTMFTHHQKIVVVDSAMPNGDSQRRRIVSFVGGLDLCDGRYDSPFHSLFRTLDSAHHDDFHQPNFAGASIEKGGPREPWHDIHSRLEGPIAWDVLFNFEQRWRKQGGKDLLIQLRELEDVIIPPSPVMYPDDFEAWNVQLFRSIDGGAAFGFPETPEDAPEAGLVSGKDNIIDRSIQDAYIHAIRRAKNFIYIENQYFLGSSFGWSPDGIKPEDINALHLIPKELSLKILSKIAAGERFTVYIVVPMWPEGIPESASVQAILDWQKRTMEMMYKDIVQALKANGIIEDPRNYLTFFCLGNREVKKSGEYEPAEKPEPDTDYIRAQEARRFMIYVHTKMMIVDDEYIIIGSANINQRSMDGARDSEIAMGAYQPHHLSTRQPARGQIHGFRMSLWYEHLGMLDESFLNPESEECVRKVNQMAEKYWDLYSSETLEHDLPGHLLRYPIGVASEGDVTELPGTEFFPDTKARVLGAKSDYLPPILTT
structure (smiles),measurement,setting,value
"CCCCCCCCCCCCCC(=O)O [myristic acid, reference compound]",cabbage PLD activity,cabbage PLD α; in the presence of 10 μM,unchanged
"CCCCCCCCCCCC(=O)NCCO [NAE12:0, N-lauroylethanolamine]",IC50,castor bean PLD α,0.13 µM
same,castor bean PLD α activity,castor bean PLD α,no activity
same,freshness of carnation stems,"white carnation; 0.1 mM, 14 days after treatments",provided extended freshness to carnation stems
same,"Angle of bend of stem, 2nd Node Below Flower",white carnation; NAE 12:0 only 0.1 mM (n = 3),8/16/12
same,"Angle of bend of stem, 3rd Node Below Flower",white carnation; NAE 12:0 only 0.1 mM (n = 3),8/12/11
same,"Angle of bend of stem, 2nd Node Below Flower",white carnation; [2],27/42
same,"Angle of bend of stem, 3rd Node Below Flower",white carnation; [2],31/13
same,Size of Flower Bloom (Cross-Sectional Width),carnations; 0.0004 mM,2.6 cm
same,Size of Flower Bloom (Cross-Sectional Width),carnations; 0.004 mM,3.0 cm
same,visible signs of flower senescence,carnations; 0.04 mM,little evidence of flower senescence
same,Size of Flower Bloom (Cross-Sectional Width),carnations; 0.040 mM,3.3 cm
same,Size of Flower Bloom (Cross-Sectional Width),carnations; 0.4 mM,3.1 cm
same,Size of Flower Bloom (Cross-Sectional Width at Tip),long-stem pink roses; 0.0004 mM,1.0 cm
same,Size of Flower Bloom (Cross-Sectional Width at Tip),long-stem pink roses; 0.004 mM,2.3 cm
same,Roses appearance (mark),long-stem pink roses; 0.004 mM,*
same,Size of Flower Bloom (Cross-Sectional Width at Tip),long-stem pink roses; 0.04 mM,1.8 cm
same,Roses appearance (mark),long-stem pink roses; 0.04 mM,*
same,Size of Flower Bloom (Cross-Sectional Width at Tip),long-stem pink roses; 0.4 mM,1.8 cm
same,Roses appearance,long-stem pink roses; cell spans the NAE columns 0.0004 mM to 0.4 mM,NICE APPEARANCE
same,remaining activity at 1 µM,cabbage PLD α,37%
same,inhibition of cabbage PLD α,cabbage PLD α,effective inhibitors
same,prevention of petal collapse versus water or Aquaplus,"red Gerber daisy; 0.2 mM, blind comparison",far superior in preventing petal collapse
same,Number of Days Before Wilting,"red Gerber daisy; NAE 12:0 0.2 mM aqueous solution, Aquaplus dissolved in water according to manufacturer's instructions",12 days
same,inhibition of S. chromofuscus PLD,S. chromofuscus PLD,but not of S. chromofuscus PLD
NCCO [ethanolamine],inhibitory effect on PLD,PLD,no inhibitory effect
"CCCCCCCCCCCCCC(=O)NCCO [NAE14:0, N-myristoylethanolamine]",IC50,castor bean PLD α,0.1 µM
same,castor bean PLD α activity,castor bean PLD α,no activity
same,type of inhibition,castor bean PLD α,noncompetitive binding
same,apparent Vmax,cabbage PLD α; in the presence of 0.01 μM NAE14:0,11.1 μmol min^−1 mg^−1 protein
same,type of inhibition,"cabbage PLD α; increasing substrate concentration (PC), FIG. 7",noncompetitive inhibition
same,remaining activity at 1 µM,cabbage PLD α,22%
same,inhibition of cabbage PLD α,cabbage PLD α,effective inhibitors
same,inhibition of S. chromofuscus PLD,S. chromofuscus PLD,but not of S. chromofuscus PLD
"CCCCCCCCCCCCCCCC(=O)NCCO [NAE16:0, N-palmitoylethanolamine]",IC50,castor bean PLD α,5 µM
same,solubility in water,[1],limited solubility in water
"CCCCCCCCCCCCCCCCCC(=O)NCCO [NAE18:0, N-stearoylethanolamine]",IC50,castor bean PLD α,10 µM
same,solubility in water,[1],limited solubility in water
"CC/C=C\C/C=C\C/C=C\CCCCCCCC(=O)NCCO [NAE18:3, N-linolenoylethanolamine]",IC50,castor bean PLD α; read-out: IC50 Values,80 µM
"CCCCC/C=C\C/C=C\CCCCCCCC(=O)NCCO [NAE18:2, N-linoleoylethanolamine]",IC50,castor bean PLD α,30 µM
"CCCCCCCCCCCCCCCCCCCC(=O)NCCO [NAE20:0, N-arachidoylethanolamine]",solubility in water,[1],limited solubility in water
